Measurements taken from article PMC6804419, “Synthesis and Inhibitory Effect of Some Indole‐Pyrimidine Based Hybrid Heterocycles on α‐Glucosidase and α‐Amylase as Potential Hypoglycemic Agents” (ChemistryOpen, 2019).

Assays:
[1] = target: T1, α-amylase from Aspergillus oryzae (Aspergillus oryzae, UniProt P0C1B3); assay: α-Amylase assay; type: biochemical
T1 construct: purchased Sigma Aldrich
Description: (§1) α‐glucosidase type 1 from baker‘s yeast (G5003; Sigma‐Aldrich, St. Louis, MO, USA), p‐nitrophenyl α‐D‐glucopyranoside (N1377, Sigma‐Aldrich), sodiumphosphatemonobasic (S3139, Sigma‐Aldrich), sodiumphosphatedibasic (S5136, Sigma‐Aldrich), andacarbose (A8980, Sigma‐Aldrich), DMSO (Dimethylsulfoxide), α‐amylase from Aspergillus oryzae (Sigma Aldrich), starch, DNS (3, 5‐dinitrosalicylic acid), sodiumpotassiumtartratetetrahydrate.
Briefly, 250 μL (0.4 mg/mL) was preincubated with 250 μL of α‐amylase solution for 10 min at 25 °C in one set of tubes. In another set of tubes α‐amylase was preincubated with 250 μL of phosphate buffer (pH 6.9). 250 μL of starch solution at increasing concentrations (0.2–1 % (w/v)) was added to both sets of reaction mixtures to start the reaction. The mixture was then incubated for 10 min at 25 °C and then boiled for 15 min after the addition of 250 μL of DNS to stop the reaction. The amount of reducing sugars released was determined spectrophotometrically using a maltose standard curve and converted to reaction velocities.
(§2) The inhibitory concentration 50 % (IC50) values were determined from the plots of percent inhibition versus log inhibitor concentration and calculated by logarithmic regression analysis from the mean inhibitory values.

[2] = target: T2, α-glucosidase type 1 from baker's yeast (Saccharomyces cerevisiae, UniProt P53341); assay: α-Glucosidase inhibition assay; type: biochemical
T2 construct: purchased Sigma-Aldrich G5003
T2 sequence (P53341 whole entry): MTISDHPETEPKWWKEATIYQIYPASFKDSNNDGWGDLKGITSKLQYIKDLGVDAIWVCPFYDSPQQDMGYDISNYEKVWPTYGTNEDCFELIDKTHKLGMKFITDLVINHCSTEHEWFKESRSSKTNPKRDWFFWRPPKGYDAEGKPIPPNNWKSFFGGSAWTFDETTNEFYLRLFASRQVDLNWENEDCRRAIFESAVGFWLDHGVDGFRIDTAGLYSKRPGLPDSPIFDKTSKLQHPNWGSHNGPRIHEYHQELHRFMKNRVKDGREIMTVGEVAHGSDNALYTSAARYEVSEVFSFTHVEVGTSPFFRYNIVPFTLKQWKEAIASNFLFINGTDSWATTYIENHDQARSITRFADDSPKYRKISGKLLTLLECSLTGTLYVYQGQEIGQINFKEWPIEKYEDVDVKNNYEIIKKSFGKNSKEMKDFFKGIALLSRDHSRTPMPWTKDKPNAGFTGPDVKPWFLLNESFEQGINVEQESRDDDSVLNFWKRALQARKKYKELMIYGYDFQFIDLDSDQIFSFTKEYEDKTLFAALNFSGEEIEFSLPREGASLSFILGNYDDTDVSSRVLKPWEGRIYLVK
Description: as §1
Concentration of α‐glucosidase and substrate. Sodium phosphate buffer (0.1 M) was adjusted by 0.1 N HCl to pH 7.0 with a pH meter (Thermo Fisher Scientific Inc., Waltham, MA, USA). p‐Nitrophenyl α‐D‐glucopyranoside (10 mM) and α‐glucosidase solutions (1 U/ml) were solubilized in 0.1 M sodium phosphate buffer (pH 7.0). All the reagents were manufactured shortly before use and warmed to 37 °C in a water bath. Sodium phosphate buffer (0.1 M, 158 μl per well) was added to a 96‐well plate. α‐Glucosidase (20 μl) and 2 μl of sample were added to 20 μl of p‐nitrophenyl α‐D‐glucopyranoside. In the 200‐μl final reaction volume (0.02 U/well, 0.1 U/ml) the substrate concentration was adjusted to […]. The background signal due to the sample color was measured at 405 nm with the PerkinElmer Wallac Victor3 spectrophotometer (PerkinElmer, Waltham, MA, USA) prior to adding the enzyme. Immediately following α‐glucosidase addition, absorbance was measured at 405 nm 8 times at 1‐min intervals.16
as §2

SMILES	IC50 [1]	melting point	IC50 [2]
CN1C(=O)C(C(CC(=O)c2cn(C)c3ccccc23)c2ccccc2)C(=O)N(C)C1=O (centres unmarked) [5a, 1,3‐Dimethyl‐5‐(3‐(1‐methyl‐1H‐indol‐3‐yl)‐3‐oxo‐1‐phenylpropyl)pyrimidine‐2,4,6(1H,3H,5H)‐trione]	93.25 ± 0.1 µM	185 to 186 °C	65.14 ± 0.17 µM
CCn1cc(C(=O)CC(c2ccc(C)cc2)C2C(=O)N(C)C(=O)N(C)C2=O)c2ccccc21 (centres unmarked) [5b]	80.17 ± 0.05 µM	155 to 156 °C	53.15 ± 0.12 µM
CCn1cc(C(=O)CC(c2ccc(Cl)cc2)C2C(=O)N(C)C(=O)N(C)C2=O)c2ccccc21 (centres unmarked) [5c, 5‐(1‐(4‐Chlorophenyl)‐3‐(1‐ethyl‐1H‐indol‐3‐yl)‐3‐oxopropyl)‐1,3‐dimethylpyrimidine‐2,4,6(1H,3H,5H)‐trione]	71.24 ± 0.2 µM	166 to 167 °C	49.75 ± 0.01 µM
CCn1cc(C(=O)CC(c2ccc(Cl)cc2Cl)C2C(=O)N(C)C(=O)N(C)C2=O)c2ccccc21 (centres unmarked) [5d, 5‐(1‐(2,4‐Dichlorophenyl)‐3‐(1‐ethyl‐1H‐indol‐3‐yl)‐3‐oxopropyl)‐1,3‐dimethylpyrimidine‐2,4,6(1H,3H,5H)‐trione]	96.42 ± 0.22 µM	149 to 150 °C	58.21 ± 0.09 µM
CCn1cc(C(=O)CC(c2ccc(OC)cc2)C2C(=O)N(C)C(=O)N(C)C2=O)c2ccccc21 (centres unmarked) [5e, 5‐(3‐(1‐Ethyl‐1H‐indol‐3‐yl)‐1‐(4‐methoxyphenyl)‐3‐oxopropyl)‐1,3‐dimethylpyrimidine‐2,4,6(1H,3H,5H)‐trione]	88.45 ± 0.32 µM	128 to 129 °C	61.4 ± 0.78 µM
CCn1cc(C(=O)CC(c2ccc(Br)cc2)C2C(=O)N(C)C(=O)N(C)C2=O)c2ccccc21 (centres unmarked) [5f, 5‐(1‐(4‐Bromophenyl)‐3‐(1‐ethyl‐1H‐indol‐3‐yl)‐3‐oxopropyl)‐1,3‐dimethylpyrimidine‐2,4,6(1H,3H,5H)‐trione]	78.25 ± 0.1 µM	159 to 160 °C	53.15 ± 0.12 µM
CCn1cc(C(=O)CC(c2ccc(F)cc2)C2C(=O)N(C)C(=O)N(C)C2=O)c2ccccc21 (centres unmarked) [5g, 5‐(3‐(1‐Ethyl‐1H‐indol‐3‐yl)‐1‐(4‐fluorophenyl)‐3‐oxopropyl)‐1,3‐dimethylpyrimidine‐2,4,6(1H,3H,5H)‐trione]	86.42 ± 0.22 µM	185 to 186 °C	69.75 ± 0.01 µM
CCn1cc(C(=O)CC(c2cccc(F)c2)C2C(=O)N(C)C(=O)N(C)C2=O)c2ccccc21 (centres unmarked) [5h, 5‐(3‐(1‐Ethyl‐1H‐indol‐3‐yl)‐1‐(3‐fluorophenyl)‐3‐oxopropyl)‐1,3‐dimethylpyrimidine‐2,4,6(1H,3H,5H)‐trione]	89.45 ± 0.44 µM	188 to 189 °C	61.1 ± 0.42 µM
CCn1cc(C(=O)CC(c2cccc(C)c2)C2C(=O)N(C)C(=O)N(C)C2=O)c2ccccc21 (centres unmarked) [5i, 5‐(3‐(1‐Ethyl‐1H‐indol‐3‐yl)‐3‐oxo‐1‐(m–tolyl)propyl)‐1,3‐dimethylpyrimidine‐2,4,6(1H,3H,5H)‐trione]	95.25 ± 0.1 µM	125 to 126 °C	73.15 ± 0.12 µM
CCn1cc(C(=O)CC(c2cccc(Br)c2)C2C(=O)N(C)C(=O)N(C)C2=O)c2ccccc21 (centres unmarked) [5j, 5‐(1‐(3‐Bromophenyl)‐3‐(1‐ethyl‐1H‐indol‐3‐yl)‐3‐oxopropyl)‐1,3‐dimethylpyrimidine‐2,4,6(1H,3H,5H)‐trione]	86.42 ± 0.22 µM	130 to 131 °C	77.05 ± 0.04 µM
CCn1cc(C(=O)CC(c2ccc(C(F)(F)F)cc2)C2C(=O)N(C)C(=O)N(C)C2=O)c2ccccc21 (centres unmarked) [5k, 5‐(3‐(1‐Ethyl‐1H‐indol‐3‐yl)‐3‐oxo‐1‐(4‐(trifluoromethyl)phenyl)propyl)‐1,3‐dimethylpyrimidine‐2,4,6(1H,3H,5H)‐trione]	47.11 ± 0.09 µM	168 to 169 °C	20.5 ± 0.44 µM
CCn1cc(C(=O)CC(c2cccs2)C2C(=O)N(C)C(=O)N(C)C2=O)c2ccccc21 (centres unmarked) [5l, 5‐(3‐(1‐Ethyl‐1H‐indol‐3‐yl)‐3‐oxo‐1‐(thiophen‐2‐yl)propyl)‐1,3‐dimethylpyrimidine‐2,4,6(1H,3H,5H)‐trione]	35.4 ± 0.6 µM	154 to 155 °C	22.3 ± 0.48 µM
CCn1cc(C(=O)CC(c2ccco2)C2C(=O)N(C)C(=O)N(C)C2=O)c2ccccc21 (centres unmarked) [5m, 5‐(3‐(1‐Ethyl‐1H‐indol‐3‐yl)‐1‐(furan‐2‐yl)‐3‐oxopropyl)‐1,3‐dimethylpyrimidine‐2,4,6(1H,3H,5H)‐trione]	82.15 ± 0.5 µM	188 to 189 °C	64.35 ± 0.08 µM
CCn1cc(C(=O)CC(c2cc(OC)c(OC)c(OC)c2)C2C(=O)N(C)C(=O)N(C)C2=O)c2ccccc21 (centres unmarked) [5n, 5‐(3‐(1‐Ethyl‐1H‐indol‐3‐yl)‐3‐oxo‐1‐(3,4,5‐trimethoxyphenyl)propyl)‐1,3‐dimethylpyrimidine‐2,4,6(1H,3H,5H)‐trione]	93.25 ± 0.1 µM	170 to 171 °C	53.15 ± 0.12 µM
CCn1cc(C(=O)CC(c2ccc3ccccc3c2)C2C(=O)N(C)C(=O)N(C)C2=O)c2ccccc21 (centres unmarked) [5o, 5‐(3‐(1‐Ethyl‐1H‐indol‐3‐yl)‐1‐(naphthalen‐2‐yl)‐3‐oxopropyl)‐1,3‐dimethylpyrimidine‐2,4,6(1H,3H,5H)‐trione]	21.7 ± 0.82 µM		13.02 ± 0.01 µM
CCn1cc(C(=O)CC(c2ccc([N+](=O)[O-])cc2)C2C(=O)N(C)C(=O)N(C)C2=O)c2ccccc21 (centres unmarked) [5q, 5‐(3‐(1‐Ethyl‐1H‐indol‐3‐yl)‐1‐(4‐nitrophenyl)‐3‐oxopropyl)‐1,3‐ dimethylpyrimidine‐2,4,6(1H,3H,5H)‐trione]	63 ± 0.61 µM	198 to 199 °C	31.12 ± 0.11 µM
